# Columns and labels:
# [1] = system: Candida albicans CAA-14 strain; test: In vivo antifungal activity, Candida albicans infected mice, i.v.; parameters: species or system ICR male mouse; details: 5 mg/kg i.v. twice a day, 2 days, Example 1 as G2-β-CyD complex, FCZ in saline
# Protocol: Candida albicans CAA-14 strain having been cultured at 30° C. for 24 hours was suspended in physiological saline, and the cell suspension (5×10^6 cells) was injected into the tail vein of a 5-week-old ICR male mouse (9 mice per group). Two days before the infection and on the day of the infection, 100 mg/kg of cyclophosphamide was intraperitoneally administered to each animal.
# (§1) For comparison, fluconazole was used as a comparative substance.
# [2] = Plasma level in dogs (HPLC); format: in vivo, beagles (dogs); details: dog; for concentration at 0.5 h / concentration at 1 h / concentration at 2 h / concentration at 3 h / concentration at 5 h / concentration at 8 h / concentration at 24 h: plasma
# Protocol: Two beagles per group each received an oral preparation of an inclusion complex composed of the compound of Example 1 and maltosyl-β-cyclodextrin (G2 -β-CyD) at a dose of 10 mg of the compound of Example 1 per kg-b.w. or an intravenous injection of the inclusion complex at a dose of 5 mg of the compound of Example 1 per kg-b.w. For comparison, a suspension of the compound of Example 1 in 0.5% methyl cellulose (MC) was orally administered at a dose of 10 mg per kg-b.w. A-blood sample was taken at 0.5, 1, 2, 3, 5, 8, and 24 hours after administration. After deproteination, the concentration of the compound of formula (I) in the sample was determined by high performance liquid chromatography (HPLC).
# Acute toxicity in mice = format: in vivo, ICR male mouse; details: 1000 mg/kg oral, in 0.5% MC, 5 mice per group, 7 days
# [3] = system: Aspergillus fumigatus Kawasaki strain; test: In vivo antifungal activity, Aspergillus fumigatus infected mice, i.v.; parameters: species or system mouse; details: 12.5 mg/kg i.v. twice a day, 4 days
# Protocol: Aspergillus fumigatus Kawasaki strain having been cultured at 27° C. for 1 week was suspended in physiological saline, and the cell suspension (3×10^6 cells) was injected into the tail vein of a 4-week-old day male mouse (9 mice per group). Two days before the infection and on the day of the infection, 100 mg/kg of cyclophosphamide was intraperitoneally administered to each animal.
# as §1
# Candida albicans = test: In vitro antifungal activity, MIC on mycelium formation; format: cell-based; details: 37° C., 24 hours, Eagle's MEM with 10% fetal bovine serum
# Protocol: (§2) Candida albicans (10^2 cells) or Aspergillus fumigatus (10^3 cells) was inoculated to 200 μl of an Eagle's minimum essential medium containing 10% fetal bovine serum and a test compound shown in Table 2 below at a dilution increasing by a factor of 2. The system was incubated at 37° C. for 24 hours in a 5 v/v% CO2 stream to obtain the minimum inhibitory concentration (MIC) on mycelium formation.
# Aspergillus fumigatus = test: as above; format: cell-based; details: 37° C., 24 hours, Eagle's MEM with 10% fetal bovine serum
# Protocol: as §2
# [4] = system: Aspergillus fumigatus Kawasaki strain; test: In vivo antifungal activity, Aspergillus fumigatus infected mice, oral; parameters: species or system mouse; details: 25 mg/kg p.o. twice a day, 4 days; for Mean Survival Days: 10 days observation; for Survival Number on Day 1 / Survival Number on Day 2 / Survival Number on Day 3 / Survival Number on Day 4 / Survival Number on Day 5 / Survival Number on Day 6 / Survival Number on Day 7 / Survival Number on Day 8 / Survival Number on Day 9 / Survival Number on Day 10: of 9 mice
# Protocol: Asperoillus fumigatus Kawasaki strain having been cultured at 27° C. for 1 week was suspended in physiological saline, and the suspension (3×10^6 cells) was injected into the tail vein of a 4-week-old day male mouse (9 mice per group). Two days before the infection and on the day of the infection, 100 mg/kg of cyclophosphamide was intraperitoneally administered to each animal.
# For comparison, compound (A) shown below which is described in EP 0421210A2, fluconazole (FCZ) and itraconazole (ITZ), were used as a comparative substance. Itraconazole was administered in a polyethylene glycol (400) solution. [drawing 4]
# [5] = iv, 5 mg/kg, G2-β-CyD inclusion complex
# [6] = po, 10 mg/kg, G2-β-CyD inclusion complex
# [7] = po, 10 mg/kg, suspension in 0.5% MC
# [8] = of 9 mice, Example 1 as G2-β-CyD complex, FCZ in saline
compound,measurement,setting,value
"CC(C)(Sc1ccc(-n2cncn2)nn1)C(O)(Cn1cncn1)c1ccc(F)cc1F (single isomer, unassigned; (+)) [Example 1, (+)-2-(2,4-difluorophenyl)-3-methyl-1-(1H-1,2,4-triazol-1-yl)-3-(6-(1H-1,2,4-triazol-1-yl)pyridazin-3-ylthio)butan-2-ol]",Mean Survival Days,[1]; 10 days observation,> 10.0 days
same,Survival Number on Day 1,[1]; of 9 mice,9
same,Survival Number on Day 2,[1]; of 9 mice,9
same,Survival Number on Day 3,[1]; of 9 mice,9
same,Survival Number on Day 4,[1]; of 9 mice,9
same,Survival Number on Day 5,[1]; of 9 mice,9
same,Survival Number on Day 6,[1]; of 9 mice,9
same,Survival Number on Day 7,[1]; of 9 mice,9
same,Survival Number on Day 8,[1]; of 9 mice,9
same,Survival Number on Day 9,[1]; of 9 mice,9
same,Survival Number on Day 10,[1]; of 9 mice,9
same,absorption from the gastrointestinal tract,"[2]; p.o., inclusion complex with cyclodextrin derivative vs MC suspension",markedly increased absorption from the gastrointestinal tract
same,concentration at 0.5 h,[2]; [5],4100 ng/mL
same,concentration at 1 h,[2]; [5],3400 ng/mL
same,concentration at 2 h,[2]; [5],2800 ng/mL
same,concentration at 3 h,[2]; [5],2000 ng/mL
same,concentration at 5 h,[2]; [5],1700 ng/mL
same,concentration at 8 h,[2]; [5],1300 ng/mL
same,concentration at 24 h,[2]; [5],300 ng/mL
same,concentration at 0.5 h,[2]; [6],2500 ng/mL
same,concentration at 1 h,[2]; [6],2800 ng/mL
same,concentration at 2 h,[2]; [6],2900 ng/mL
same,concentration at 3 h,[2]; [6],2600 ng/mL
same,concentration at 5 h,[2]; [6],2500 ng/mL
same,concentration at 8 h,[2]; [6],2200 ng/mL
same,concentration at 24 h,[2]; [6],700 ng/mL
same,concentration at 0.5 h,[2]; [7],300 ng/mL
same,concentration at 1 h,[2]; [7],300 ng/mL
same,concentration at 2 h,[2]; [7],300 ng/mL
same,concentration at 3 h,[2]; [7],200 ng/mL
same,concentration at 5 h,[2]; [7],400 ng/mL
same,concentration at 8 h,[2]; [7],300 ng/mL
same,concentration at 24 h,[2]; [7],200 ng/mL
same,"life or death, acute toxicity",Acute toxicity in mice,No case of death
same,Mean Survival Days,"[3]; Example 1 as G2-β-CyD complex, FCZ in saline, 10 days observation",> 9.0 days
same,Survival Number on Day 1,[3]; [8],9
same,Survival Number on Day 2,[3]; [8],9
same,Survival Number on Day 3,[3]; [8],9
same,Survival Number on Day 4,"[3]; of 9 mice, G2-β-CyD complex",9
same,Survival Number on Day 5,"[3]; of 9 mice, G2-β-CyD complex",8
same,Survival Number on Day 6,"[3]; of 9 mice, G2-β-CyD complex",8
same,Survival Number on Day 7,"[3]; of 9 mice, G2-β-CyD complex",8
same,Survival Number on Day 8,"[3]; of 9 mice, G2-β-CyD complex",7
same,Survival Number on Day 9,"[3]; of 9 mice, G2-β-CyD complex",7
same,Survival Number on Day 10,"[3]; of 9 mice, G2-β-CyD complex",7
same,"MIC on Mycelium Formation, C. albicans",Candida albicans,0.05 µg/mL
same,"MIC on Mycelium Formation, A. fumigatus",Aspergillus fumigatus,3.13 µg/mL
same,Mean Survival Days,[4]; G2-β-CyD inclusion complex,> 10 days
same,Mean Survival Days,[4]; in 0.5% MC (ITZ: in PEG 400),5.9 days
same,Survival Number on Day 1,[4]; G2-β-CyD inclusion complex,9
same,Survival Number on Day 2,[4]; G2-β-CyD inclusion complex,9
same,Survival Number on Day 3,[4]; G2-β-CyD inclusion complex,9
same,Survival Number on Day 4,[4]; G2-β-CyD inclusion complex,9
same,Survival Number on Day 5,[4]; G2-β-CyD inclusion complex,9
same,Survival Number on Day 6,[4]; G2-β-CyD inclusion complex,9
same,Survival Number on Day 7,[4]; G2-β-CyD inclusion complex,9
same,Survival Number on Day 8,[4]; G2-β-CyD inclusion complex,9
same,Survival Number on Day 9,[4]; G2-β-CyD inclusion complex,9
same,Survival Number on Day 10,[4]; G2-β-CyD inclusion complex,9
same,Survival Number on Day 5,[4]; in 0.5% MC,5
same,Survival Number on Day 6,[4]; in 0.5% MC,4
same,Survival Number on Day 7,[4]; in 0.5% MC,4
same,Survival Number on Day 8,[4]; in 0.5% MC,2
same,Survival Number on Day 9,[4]; in 0.5% MC,2
same,Survival Number on Day 10,[4]; in 0.5% MC,2
same,Survival Number on Day 1,[4]; in 0.5% MC (ITZ: in PEG 400),9
same,Survival Number on Day 2,[4]; in 0.5% MC (ITZ: in PEG 400),9
same,Survival Number on Day 3,[4]; in 0.5% MC (ITZ: in PEG 400),9
same,Survival Number on Day 4,[4]; in 0.5% MC (ITZ: in PEG 400),5
"CC(C)(Sc1ccc(-n2cncn2)nn1)C(O)(Cn1cncn1)c1ccc(F)cc1F (single isomer, unassigned; (-)) [Reference Example 12, (-)-2-(2,4-difluorophenyl)-3-methyl-1-(1H-1,2,4-triazol-1-yl)-3-(6-(1H-1,2,4-triazol-1-yl)-pyridazin-3-ylthio)butan-2-ol, reference compound]","MIC on Mycelium Formation, C. albicans",Candida albicans,1.56 µg/mL
same,"MIC on Mycelium Formation, A. fumigatus",Aspergillus fumigatus,100 µg/mL
"CCC(C)n1ncn(-c2ccc(N3CCN(c4ccc(OCC5COC(Cn6cncn6)(c6ccc(Cl)cc6Cl)O5)cc4)CC3)cc2)c1=O (stereo not shown) [ITZ, itraconazole, reference compound]",Mean Survival Days,[4]; in 0.5% MC (ITZ: in PEG 400),2.1 days
same,Survival Number on Day 1,[4]; in 0.5% MC (ITZ: in PEG 400),9
same,Survival Number on Day 2,[4]; in 0.5% MC (ITZ: in PEG 400),9
same,Survival Number on Day 3,[4]; in 0.5% MC (ITZ: in PEG 400),9
same,Survival Number on Day 4,[4]; in 0.5% MC (ITZ: in PEG 400),1
"Cc1nnc(SC(C)C(O)(Cn2cncn2)c2ccc(F)cc2F)s1 (stereo not shown) [compound (A), reference compound]","life or death, acute toxicity",Acute toxicity in mice,all of the mice died
same,Mean Survival Days,[4]; in 0.5% MC (ITZ: in PEG 400),2.3 days
same,Survival Number on Day 1,[4]; in 0.5% MC (ITZ: in PEG 400),9
same,Survival Number on Day 2,[4]; in 0.5% MC (ITZ: in PEG 400),9
same,Survival Number on Day 3,[4]; in 0.5% MC (ITZ: in PEG 400),3
same,Survival Number on Day 4,[4]; in 0.5% MC (ITZ: in PEG 400),0

# From US5312815A, “Fungicidal (+)-2-(2,4-difluorophenyl)-3-methyl-1-(1H-1,2,4-triazol-1-yl)3-(6-(1H-1, 2,4-triazol-1-yl)pyridazin-3-ylthio) butan-2-ol” (Roussel Morishita Co., Ltd., priority 1992, dated 1994)
